Results published in PubChem BioAssay AID248 (DTP/NCI, 2004).
Values joined by “and” are separate entries in the source; they are usually repeats but may differ in a detail not shown here. Equal entries are not always repeated. Toxic doses and inconclusive results are not listed. Cut-off read from the data, not from the text of the source: active = T/C of 150% or more; inactive = T/C below 125%.

Test system: L1210 leukemia ip in BDF1 mice, survival T/C
Assay: NCI In Vivo Anticancer Drug Screen. Data for tumor model L1210 Leukemia (intraperitoneal) in B6D2F1 (BDF1) mice
Conditions: higher = longer survival
How it was run: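 In this screen, tumor-bearing mice given compound are compared to those given vehicle, and their survival values are reported as a treated-to-control quotient.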

[1] = endpoint: mean survival time, dose: 100.0 mg/kg/injection, schedule: Q01DX009 (ip), vehicle: Klucel (hydroxypropylcellulose) (HPC)
[2] = endpoint: mean survival time, dose: 200.0 mg/kg/injection, schedule: Q01DX009 (ip), vehicle: Klucel (hydroxypropylcellulose) (HPC)
[3] = endpoint: mean survival time, dose: 400.0 mg/kg/injection, schedule: Q01DX009 (ip), vehicle: Klucel (hydroxypropylcellulose) (HPC)
[4] = endpoint: mean survival time, dose: 100.0 mg/kg/injection, schedule: Q01DX009 (ip), vehicle: saline with Tween-80
[5] = endpoint: mean survival time, dose: 200.0 mg/kg/injection, schedule: Q01DX009 (ip), vehicle: saline with Tween-80
[6] = endpoint: mean survival time, dose: 100.0 mg/kg/injection, schedule: Q04DX003 (ip), vehicle: saline with Tween-80
[7] = endpoint: mean survival time, dose: 200.0 mg/kg/injection, schedule: Q04DX003 (ip), vehicle: saline with Tween-80
[8] = endpoint: mean survival time, dose: 400.0 mg/kg/injection, schedule: Q04DX003 (ip), vehicle: saline with Tween-80
[9] = endpoint: mean survival time, dose: 100.0 mg/kg/injection, schedule: Q04DX002 (ip), vehicle: Klucel (hydroxypropylcellulose) (HPC)

Measured: T/C

CC(C)[C@]12O[C@H]1[C@@H]1O[C@]13[C@]1(O[C@H]1C[C@H]1C4=C(C(=O)OC4)[C@@H](O)C[C@@]13C)[C@@H]2O
active: endpoint: mean survival time, dose: 100.0 micrograms/kg/injection, schedule: Q01DX009 (ip), vehicle: saline 150 % of control and 159 % of control | endpoint: mean survival time, dose: 200.0 micrograms/kg/injection, schedule: Q01DX009 (ip), vehicle: saline 198 % of control | endpoint: median survival time, dose: 0.13 mg/kg/injection, schedule: Q01DX009 (ip), vehicle: saline + alcohol 156 % of control | endpoint: median survival time, dose: 0.25 mg/kg/injection, schedule: Q01DX009 (ip), vehicle: saline + alcohol 178 % of control and 195 % of control | endpoint: median survival time, dose: 0.25 mg/kg/injection, schedule: Q01DX009 (ip), vehicle: saline with Tween-80 185 % of control and 202 % of control | endpoint: median survival time, dose: 0.25 mg/kg/injection, schedule: Q01DX009 (sc), vehicle: saline + alcohol 151 % of control | endpoint: median survival time, dose: 31.2 micrograms/kg/injection, schedule: Q03HX024 (ip), vehicle: saline + alcohol 157 % of control | endpoint: median survival time, dose: 62.5 micrograms/kg/injection, schedule: Q03HX024 (ip), vehicle: saline + alcohol 162 % of control | endpoint: median survival time, dose: 62.5 micrograms/kg/injection, schedule: Q03HX024 (sc), vehicle: saline + alcohol 165 % of control
inactive: endpoint: mean survival time, dose: 2.4 micrograms/kg/injection, schedule: Q01DX009 (oral), vehicle: Klucel (hydroxypropylcellulose) (HPC) 105 % of control | endpoint: mean survival time, dose: 4.8 micrograms/kg/injection, schedule: Q01DX009 (oral), vehicle: Klucel (hydroxypropylcellulose) (HPC) 102 % of control | endpoint: mean survival time, dose: 9.5 micrograms/kg/injection, schedule: Q01DX009 (oral), vehicle: Klucel (hydroxypropylcellulose) (HPC) 101 % of control | endpoint: mean survival time, dose: 13.0 micrograms/kg/injection, schedule: Q01DX009 (ip), vehicle: saline 94 % of control and 111 % of control | endpoint: mean survival time, dose: 19.0 micrograms/kg/injection, schedule: Q01DX009 (oral), vehicle: Klucel (hydroxypropylcellulose) (HPC) 116 % of control | endpoint: mean survival time, dose: 25.0 micrograms/kg/injection, schedule: Q01DX009 (ip), vehicle: saline 108 % of control and 110 % of control | endpoint: mean survival time, dose: 38.0 micrograms/kg/injection, schedule: Q01DX009 (oral), vehicle: Klucel (hydroxypropylcellulose) (HPC) 107 % of control | endpoint: mean survival time, dose: 38.0 micrograms/kg/injection, schedule: Q01DX009 (oral), vehicle: saline + alcohol 103 % of control | endpoint: median survival time, dose: 0.06 mg/kg/injection, schedule: Q01DX009 (ip), vehicle: saline + alcohol 113 % of control | endpoint: median survival time, dose: 0.06 mg/kg/injection, schedule: Q01DX009 (ip), vehicle: saline with Tween-80 114 % of control and 124 % of control | endpoint: median survival time, dose: 0.06 mg/kg/injection, schedule: Q01DX009 (sc), vehicle: saline + alcohol 102 % of control | endpoint: median survival time, dose: 0.06 mg/kg/injection, schedule: Q04DX003 (ip), vehicle: saline + alcohol 98 % of control | endpoint: median survival time, dose: 0.12 mg/kg/injection, schedule: Q01DX009 (sc), vehicle: saline + alcohol 107 % of control | endpoint: median survival time, dose: 0.12 mg/kg/injection, schedule: Q04DX003 (ip), vehicle: saline + alcohol 106 % of control | endpoint: median survival time, dose: 0.12 mg/kg/injection, schedule: Q08DX002 (ip), vehicle: saline + alcohol 102 % of control | endpoint: median survival time, dose: 0.13 mg/kg/injection, schedule: Q01DX009 (oral), vehicle: saline + alcohol 100 % of control and 120 % of control | endpoint: median survival time, dose: 0.25 mg/kg/injection, schedule: Q01DX001 (ip), vehicle: saline + alcohol 102 % of control | endpoint: median survival time, dose: 0.25 mg/kg/injection, schedule: Q04DX003 (ip), vehicle: saline + alcohol 107 % of control | endpoint: median survival time, dose: 0.25 mg/kg/injection, schedule: Q08DX002 (ip), vehicle: saline + alcohol 109 % of control | endpoint: median survival time, dose: 0.5 mg/kg/injection, schedule: Q01DX001 (ip), vehicle: saline + alcohol 113 % of control | endpoint: median survival time, dose: 0.5 mg/kg/injection, schedule: Q01DX009 (ip), vehicle: saline + alcohol 95 % of control | endpoint: median survival time, dose: 0.5 mg/kg/injection, schedule: Q04DX003 (ip), vehicle: saline + alcohol 113 % of control | endpoint: median survival time, dose: 0.5 mg/kg/injection, schedule: Q08DX002 (ip), vehicle: saline + alcohol 114 % of control | endpoint: median survival time, dose: 8.0 micrograms/kg/injection, schedule: Q03HX024 (ip), vehicle: saline + alcohol 104 % of control | endpoint: median survival time, dose: 8.0 micrograms/kg/injection, schedule: Q03HX024 (sc), vehicle: saline + alcohol 94 % of control | endpoint: median survival time, dose: 15.6 micrograms/kg/injection, schedule: Q03HX024 (sc), vehicle: saline + alcohol 98 % of control | endpoint: median survival time, dose: 16.0 micrograms/kg/injection, schedule: Q03HX024 (oral), vehicle: saline + alcohol 98 % of control and 101 % of control | endpoint: median survival time, dose: 31.2 micrograms/kg/injection, schedule: Q03HX008 (ip), vehicle: saline + alcohol 117 % of control | endpoint: median survival time, dose: 31.2 micrograms/kg/injection, schedule: Q03HX024 (sc), vehicle: saline + alcohol 103 % of control | endpoint: median survival time, dose: 31.3 micrograms/kg/injection, schedule: Q03HX024 (oral), vehicle: saline + alcohol 110 % of control

CC1CCN(C(=O)NCCCCCCNC(=O)N2CCC(C)CC2)CC1
inactive: [1] 100 % of control | [2] 97 % of control | [3] 90 % of control

N#Cc1c[nH]n2c(=S)ncnc12
inactive: [4] 105 % of control | [5] 101 % of control

CCc1c(C/C(=N/O)C(=O)O)[nH]c(=S)[nH]c1=O
inactive: [6] 97 % of control | [7] 97 % of control | [8] 96 % of control

O=C(O)/C=C/c1ccc(Cl)cc1
inactive: endpoint: mean survival time, dose: 100.0 mg/kg/injection, schedule: Q04DX002 (ip), vehicle: gum acacia 107 % of control | endpoint: mean survival time, dose: 200.0 mg/kg/injection, schedule: Q04DX002 (ip), vehicle: gum acacia 95 % of control | endpoint: mean survival time, dose: 400.0 mg/kg/injection, schedule: Q04DX002 (ip), vehicle: gum acacia 107 % of control

CN(C)C1CCCCCCC1
inactive: endpoint: mean survival time, dose: 75.0 mg/kg/injection, schedule: Q01DX001 (ip), vehicle: acetone 95 % of control

c1ccc(C2(c3ccccc3)CC([P+](c3ccccc3)(c3ccccc3)c3ccccc3)=NN2)cc1
inactive: endpoint: mean survival time, dose: 100.0 mg/kg/injection, schedule: Q01DX001 (ip), vehicle: saline 108 % of control | endpoint: mean survival time, dose: 200.0 mg/kg/injection, schedule: Q01DX001 (ip), vehicle: saline 115 % of control

N/N=C(\NN)c1ccccc1
inactive: [4] 92 % of control | [5] 91 % of control | endpoint: mean survival time, dose: 400.0 mg/kg/injection, schedule: Q01DX009 (ip), vehicle: saline with Tween-80 86 % of control

COc1ccccc1/C=C(\C#N)c1cccc2ccccc12
inactive: endpoint: mean survival time, dose: 25.0 mg/kg/injection, schedule: Q04DX002 (ip), vehicle: Klucel (hydroxypropylcellulose) (HPC) 118 % of control | endpoint: mean survival time, dose: 50.0 mg/kg/injection, schedule: Q04DX002 (ip), vehicle: Klucel (hydroxypropylcellulose) (HPC) 93 % of control | [1] 94 % of control | [9] 107 % of control | [2] 89 % of control | [3] 90 % of control

C1=NCCc2cc3[nH]c4ccccc4c3cc21
inactive: endpoint: mean survival time, dose: 25.0 mg/kg/injection, schedule: Q01DX009 (ip), vehicle: Klucel (hydroxypropylcellulose) (HPC) 100 % of control | endpoint: mean survival time, dose: 50.0 mg/kg/injection, schedule: Q01DX009 (ip), vehicle: Klucel (hydroxypropylcellulose) (HPC) 100 % of control | endpoint: mean survival time, dose: 50.0 mg/kg/injection, schedule: Q04DX003 (ip), vehicle: Klucel (hydroxypropylcellulose) (HPC) 98 % of control | endpoint: mean survival time, dose: 100.0 mg/kg/injection, schedule: Q01DX001 (ip), vehicle: Klucel (hydroxypropylcellulose) (HPC) 95 % of control | [1] 102 % of control | endpoint: mean survival time, dose: 100.0 mg/kg/injection, schedule: Q04DX003 (ip), vehicle: Klucel (hydroxypropylcellulose) (HPC) 97 % of control | endpoint: mean survival time, dose: 200.0 mg/kg/injection, schedule: Q01DX001 (ip), vehicle: Klucel (hydroxypropylcellulose) (HPC) 91 % of control

CCOP(=O)(OCC)Oc1ccc(SC)cc1
inactive: endpoint: mean survival time, dose: 5.0 mg/kg/injection, schedule: Q01DX001 (ip), vehicle: saline 96 % of control | endpoint: mean survival time, dose: 10.0 mg/kg/injection, schedule: Q01DX001 (ip), vehicle: saline 98 % of control

O=P(CCCc1ccccc1)(CCCc1ccccc1)Oc1cccc(C(F)(F)F)c1
inactive: [6] 90 % of control | [7] 92 % of control | [8] 101 % of control

CCCCCCCCCCCCCCCCCC(=O)Oc1c(C(C)CC)cc([N+](=O)[O-])cc1[N+](=O)[O-] (configuration not stated)
inactive: [9] 89 % of control | endpoint: mean survival time, dose: 200.0 mg/kg/injection, schedule: Q04DX002 (ip), vehicle: Klucel (hydroxypropylcellulose) (HPC) 86 % of control | endpoint: mean survival time, dose: 400.0 mg/kg/injection, schedule: Q04DX002 (ip), vehicle: Klucel (hydroxypropylcellulose) (HPC) 105 % of control
